Experimental findings from ChEMBL document CHEMBL1201862, “PubChem BioAssay data set” (2004) are described below.

Some test systems named below: 786-0; ACHN; CCRF-CEM; EKVX; HCT-116; IGROV-1; MDA-N; NCI-H23; NCI-H522; OVCAR-5; PC-3; SF-295; SF-539; SNB-19; T47D; TK-10; U-251; NCI-H226; SK-MEL-2.
Holding throughout (assay): NCI tumour cell line growth inhibition, 48 h

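96-well plates; 48 h exposure; 5 concentrations. Endpoints by linear interpolation between flanking doses. Not reached: highest tested concentration assigned. GI50: concentration for 50% inhibition of growth.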 Active and inactive are the calls of the source. No stated cut-off is given here; in the data, active = GI50 up to about 1.1 µM and inactive = higher. Some results are limits rather than exact numbers.

As for `CSc1s[s+]c(SC)c1-c1ccccc1`, the GI50 with 786-0 was 14.1 µM (inactive); with ACHN, 16.3 µM (inactive); in the experiment on CCRF-CEM, 25.2 µM (inactive); with EKVX, 14.8 µM (inactive); in the experiment on HCT-116 it was 15.4 µM (inactive); with IGROV-1 it was 17.6 µM (inactive). Moreover, the GI50 in the experiment with MDA-N is 16.7 µM (inactive); in the experiment with NCI-H23 it was 16.9 µM (inactive); in the experiment with NCI-H522 it was 11.7 µM (inactive); with OVCAR-5, 15.8 µM (inactive); in the experiment with PC-3, 21.7 µM (inactive); with SF-295, 17.6 µM (inactive). The GI50 in the experiment with SF-539 was 18.2 µM (inactive); in the experiment on SNB-19 it was 16.6 µM (inactive); with T47D it was 32.6 µM (inactive); in the experiment on TK-10 it was 15.5 µM (inactive); in the experiment with U-251, 19.4 µM (inactive).

Turning to `CC1(C)C2CCC(CN)(C2)C1N` (configuration not stated), the GI50 in the experiment on 786-0, in the experiment with ACHN, in the experiment with CCRF-CEM, in the experiment with EKVX, in the experiment with HCT-116 and in the experiment on IGROV-1 was > 100 µM (inactive) throughout. Moreover, the GI50 with MDA-N, in the experiment on NCI-H226, with NCI-H23, with OVCAR-5, in the experiment with PC-3 and in the experiment with SF-295 was > 100 µM (inactive) in each case. Moreover, the GI50 in the experiment on SF-539, in the experiment on SK-MEL-2, in the experiment on SNB-19, in the experiment with T47D, with TK-10 and in the experiment on U-251 was > 100 µM (inactive) each time.

With `Cc1ccc(C(=O)/C=C(\O)C(=O)NC23CC4CC(CC(C4)C2)C3)cc1`, the GI50 is > 10 µM (inactive) with 786-0; 5.92 µM (inactive) in the experiment on CCRF-CEM; > 10 µM (inactive) in the experiment on EKVX; > 10 µM (inactive) with MDA-N; 5.43 µM (inactive) with NCI-H23; 9.79 µM (inactive) with PC-3. Further, the GI50 in the experiment with SF-295 is 5.86 µM (inactive); in the experiment on T47D, > 10 µM (inactive); in the experiment with TK-10 it was > 10 µM (inactive).

Consider `CNc1ccc([S+]([O-])Nc2ccc(OC)cc2)cc1` (configuration not stated), for which the GI50 is 74.8 µM (inactive) with 786-0; 32.3 µM (inactive) in the experiment on ACHN; 46.5 µM (inactive) with CCRF-CEM; 70.1 µM (inactive) in the experiment with EKVX; 66.8 µM (inactive) with HCT-116; 11.4 µM (inactive) in the experiment on IGROV-1. In addition, the GI50 in the experiment with MDA-N, with NCI-H226, in the experiment on NCI-H23, in the experiment with NCI-H522, in the experiment on PC-3 and in the experiment with SF-295 was > 100 µM (inactive) each time. For the same molecule, the GI50 in the experiment on SF-539 is 33.2 µM (inactive); in the experiment on SNB-19, > 100 µM (inactive); in the experiment on T47D it was 31.8 µM (inactive); in the experiment on TK-10 it was > 100 µM (inactive); in the experiment on U-251 it was 43.4 µM (inactive).

On to `CN1C(=O)C2CCCC(=O)N2c2cccnc21` (configuration not stated), for which the GI50 in the experiment on 786-0, with ACHN, with CCRF-CEM, in the experiment on EKVX, in the experiment on HCT-116 and with IGROV-1 was > 100 µM (inactive) throughout. Besides, the GI50 in the experiment on MDA-N, in the experiment on NCI-H226, with NCI-H23, with NCI-H522, in the experiment with SF-295 and in the experiment on SF-539 was > 100 µM (inactive) in each case. The GI50 in the experiment on SK-MEL-2 is 32.4 µM (inactive); in the experiment with SNB-19, > 100 µM (inactive); in the experiment on T47D it was > 100 µM (inactive); in the experiment with TK-10 it was > 100 µM (inactive); in the experiment on U-251, > 100 µM (inactive).

With `BrC(c1cccc2ccccc12)c1cccc2ccccc12`, the GI50 was 13.7 µM (inactive) in the experiment with 786-0; 21.9 µM (inactive) in the experiment with ACHN; 16.7 µM (inactive) with EKVX; 6.61 µM (inactive) in the experiment with HCT-116; 13.8 µM (inactive) in the experiment with IGROV-1; 15.1 µM (inactive) in the experiment with MDA-N. The GI50 in the experiment on NCI-H226 is 17.2 µM (inactive); in the experiment with NCI-H23 it was 19.9 µM (inactive); with NCI-H522, 10.9 µM (inactive); in the experiment on OVCAR-5 it was 27.1 µM (inactive); with PC-3, 22.1 µM (inactive); in the experiment with SF-295 it was 25.5 µM (inactive). For the same molecule, the GI50 was 14.9 µM (inactive) with SK-MEL-2; 43.4 µM (inactive) in the experiment on SNB-19; 29.4 µM (inactive) in the experiment on T47D; 29 µM (inactive) with TK-10; 16.9 µM (inactive) in the experiment on U-251.

As to `COc1cc2c(cc1OC)-c1[nH]c3ccc(C#N)cc3c1CC(=O)N2`, the GI50 in the experiment on 786-0 was 3.68 µM (inactive); in the experiment on ACHN, 2.32 µM (inactive); with CCRF-CEM it was 1.56 µM (inactive); with EKVX it was 22.2 µM (inactive); in the experiment with IGROV-1 it was 0.759 µM (active); with MDA-N, 2.48 µM (inactive). Moreover, the GI50 with NCI-H226 is 3.8 µM (inactive); in the experiment on NCI-H23, 12.2 µM (inactive); with OVCAR-5 it was 3.69 µM (inactive); in the experiment with PC-3 it was 57.5 µM (inactive); in the experiment with SF-295, 6.14 µM (inactive); with SF-539 it was 0.521 µM (active). Besides, the GI50 with SNB-19 was > 100 µM (inactive); in the experiment on T47D it was > 100 µM (inactive); in the experiment on TK-10, > 27 µM (inactive); with U-251, 2.61 µM (inactive).

For the molecule `COc1ccc(NCc2cnc3nc(N)nc(N)c3c2C)cc1`, the GI50 in the experiment with 786-0 was 0.254 µM (active); in the experiment on ACHN it was 0.56 µM (active); in the experiment on CCRF-CEM, 0.57 µM (active); with EKVX, 15.7 µM (inactive); with HCT-116, 0.0785 µM (active); in the experiment with IGROV-1 it was 0.771 µM (active). Moreover, the GI50 with MDA-N was 0.174 µM (active); in the experiment on NCI-H226, 33.7 µM (inactive); in the experiment with NCI-H23 it was 0.628 µM (active); with NCI-H522, 5.52 µM (inactive); in the experiment with OVCAR-5, 3.87 µM (inactive); with SF-295, 0.41 µM (active). The GI50 is 0.7 µM (active) with SF-539; > 100 µM (inactive) in the experiment with SK-MEL-2; 21 µM (inactive) in the experiment with SNB-19; 15 µM (inactive) with T47D; 41.4 µM (inactive) in the experiment on TK-10; 0.555 µM (active) in the experiment on U-251.

In the case of `CO/N=C(\C(=O)Nc1cncs1)c1csc(N)n1`, the GI50 in the experiment with 786-0, in the experiment with ACHN, in the experiment with CCRF-CEM, in the experiment on EKVX, in the experiment on HCT-116 and in the experiment on IGROV-1 was > 10 µM (inactive) each time. For the same molecule, the GI50 in the experiment with MDA-N, with NCI-H23, in the experiment on NCI-H522, with OVCAR-5, in the experiment on PC-3 and with SF-295 was > 10 µM (inactive) throughout. The GI50 in the experiment on SF-539, in the experiment with SNB-19, in the experiment on T47D, with TK-10 and in the experiment on U-251 was > 10 µM (inactive) in each case.

For the molecule `Cc1cc(C)nc(NS(=O)(=O)c2ccc(NC(=O)NC(F)(F)F)cc2)n1`, the GI50 in the experiment with 786-0, with ACHN, with CCRF-CEM, with EKVX, with HCT-116 and in the experiment with IGROV-1 was > 100 µM (inactive) throughout. The GI50 with MDA-N, in the experiment on NCI-H23, with OVCAR-5, with PC-3, with SF-539 and in the experiment on SK-MEL-2 was > 100 µM (inactive) throughout. In addition, the GI50 in the experiment with SNB-19, in the experiment on T47D, in the experiment on TK-10 and with U-251 was > 100 µM (inactive) each time.

Consider `CN1CC=C(OP(=O)(NCc2ccccc2)N(CCCl)CCCl)CC1` (configuration not stated), for which the GI50 with 786-0, in the experiment with ACHN, in the experiment with CCRF-CEM, with EKVX, in the experiment with HCT-116 and with IGROV-1 was > 100 µM (inactive) throughout. The GI50 in the experiment with MDA-N, with NCI-H226, in the experiment with NCI-H23, in the experiment on OVCAR-5, in the experiment with PC-3 and in the experiment on SF-295 was > 100 µM (inactive) throughout. For the same molecule, the GI50 in the experiment with SF-539, in the experiment on SK-MEL-2, in the experiment with SNB-19, with T47D, in the experiment with TK-10 and with U-251 was > 100 µM (inactive) each time.

As for `O=C1NC(=O)/C(=C\c2ccncc2)N1`, the GI50 with 786-0, in the experiment with ACHN, with EKVX, in the experiment on HCT-116, with IGROV-1 and with MDA-N was > 100 µM (inactive) each time. Further, the GI50 in the experiment on NCI-H226, with NCI-H23, in the experiment on OVCAR-5, in the experiment with PC-3, in the experiment with SF-295 and in the experiment on SF-539 was > 100 µM (inactive) each time. The GI50 in the experiment with SK-MEL-2, in the experiment on SNB-19, in the experiment on T47D, with TK-10 and with U-251 was > 100 µM (inactive) throughout.
